Test results as given in patent publication US11021467B2, “Phosphatidylinositol 3-kinase inhibitors” (Gilead Sciences, Inc., priority 2014, dated 2021).

Tests used:
Assay in all cases: TR-FRET enzymatic activity assay against PI3K isoforms
Format in all cases: biochemical
PI3Kγ = PI3Kγ (Homo sapiens (Human), UniProt P48736); details: 2×Km ATP, 30 minutes at 25° C.
Description: (§1) The compounds of formula (I) were characterized for their enzymatic activity against the PI3K isoforms. […] TR-FRET monitored the formation of 3,4,5-inositol triphosphate molecule that competed with fluorescently labeled PIP3 for binding to the GRP-1 pleckstrin homology domain protein.

PI3Kδ = PI3Kδ (Homo sapiens (Human), UniProt O00329); details: 2×Km ATP, 30 minutes at 25° C.
Description: as §1

PI3Kβ = PI3Kβ (Homo sapiens (Human), UniProt P42338); details: PI3Kβ, TR-FRET, 2×Km ATP, 30 minutes at 25° C.
Description: as §1

PI3Kδ, sequence (O00329 whole entry): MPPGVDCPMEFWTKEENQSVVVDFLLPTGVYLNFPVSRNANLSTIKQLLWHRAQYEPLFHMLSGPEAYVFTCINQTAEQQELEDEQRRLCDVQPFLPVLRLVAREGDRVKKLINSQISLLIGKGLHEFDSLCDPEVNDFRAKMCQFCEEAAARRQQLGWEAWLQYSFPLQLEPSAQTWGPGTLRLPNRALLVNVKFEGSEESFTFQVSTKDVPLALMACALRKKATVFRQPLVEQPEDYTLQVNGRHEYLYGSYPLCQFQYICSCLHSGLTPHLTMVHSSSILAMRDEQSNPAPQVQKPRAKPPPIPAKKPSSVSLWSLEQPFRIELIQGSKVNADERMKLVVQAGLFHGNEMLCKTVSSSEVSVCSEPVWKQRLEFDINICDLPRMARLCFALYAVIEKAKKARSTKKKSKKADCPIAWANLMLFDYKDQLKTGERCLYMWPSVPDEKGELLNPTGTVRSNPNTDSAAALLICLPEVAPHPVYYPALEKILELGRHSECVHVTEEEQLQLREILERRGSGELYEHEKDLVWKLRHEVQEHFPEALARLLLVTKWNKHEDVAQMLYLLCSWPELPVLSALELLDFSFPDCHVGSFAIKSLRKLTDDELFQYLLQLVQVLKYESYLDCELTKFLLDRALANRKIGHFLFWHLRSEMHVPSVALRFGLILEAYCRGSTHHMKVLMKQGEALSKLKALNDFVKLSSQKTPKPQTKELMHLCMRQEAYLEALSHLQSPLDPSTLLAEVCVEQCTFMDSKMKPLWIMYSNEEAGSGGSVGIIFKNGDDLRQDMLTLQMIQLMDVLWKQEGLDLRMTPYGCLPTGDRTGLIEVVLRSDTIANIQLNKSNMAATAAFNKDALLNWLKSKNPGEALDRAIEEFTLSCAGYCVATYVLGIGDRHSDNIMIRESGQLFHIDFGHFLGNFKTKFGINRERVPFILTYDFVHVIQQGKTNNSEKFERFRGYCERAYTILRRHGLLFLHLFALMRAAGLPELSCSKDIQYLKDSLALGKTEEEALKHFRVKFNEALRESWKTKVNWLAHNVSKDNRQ
PI3Kδ, sequence (P27986 whole entry partner): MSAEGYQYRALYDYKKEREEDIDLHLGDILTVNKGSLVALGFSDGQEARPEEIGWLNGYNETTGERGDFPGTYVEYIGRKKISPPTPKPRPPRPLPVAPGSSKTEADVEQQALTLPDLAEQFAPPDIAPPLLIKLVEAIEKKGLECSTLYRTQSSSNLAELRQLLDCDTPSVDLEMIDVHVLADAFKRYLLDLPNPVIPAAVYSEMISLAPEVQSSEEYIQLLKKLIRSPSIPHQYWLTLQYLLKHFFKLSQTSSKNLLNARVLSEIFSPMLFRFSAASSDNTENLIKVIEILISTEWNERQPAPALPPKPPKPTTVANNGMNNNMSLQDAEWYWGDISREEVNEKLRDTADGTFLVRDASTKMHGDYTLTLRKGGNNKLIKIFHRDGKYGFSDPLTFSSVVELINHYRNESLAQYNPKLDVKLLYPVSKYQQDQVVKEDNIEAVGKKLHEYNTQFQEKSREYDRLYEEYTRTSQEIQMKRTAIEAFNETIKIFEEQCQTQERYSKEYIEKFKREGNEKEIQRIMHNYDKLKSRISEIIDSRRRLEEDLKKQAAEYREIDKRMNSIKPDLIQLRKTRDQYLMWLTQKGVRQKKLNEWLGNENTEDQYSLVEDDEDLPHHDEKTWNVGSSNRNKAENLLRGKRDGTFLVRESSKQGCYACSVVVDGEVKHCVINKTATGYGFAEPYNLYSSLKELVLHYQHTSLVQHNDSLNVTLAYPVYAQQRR
PI3Kγ, sequence (P48736 whole entry, the tested form may be a part, canonical isoform): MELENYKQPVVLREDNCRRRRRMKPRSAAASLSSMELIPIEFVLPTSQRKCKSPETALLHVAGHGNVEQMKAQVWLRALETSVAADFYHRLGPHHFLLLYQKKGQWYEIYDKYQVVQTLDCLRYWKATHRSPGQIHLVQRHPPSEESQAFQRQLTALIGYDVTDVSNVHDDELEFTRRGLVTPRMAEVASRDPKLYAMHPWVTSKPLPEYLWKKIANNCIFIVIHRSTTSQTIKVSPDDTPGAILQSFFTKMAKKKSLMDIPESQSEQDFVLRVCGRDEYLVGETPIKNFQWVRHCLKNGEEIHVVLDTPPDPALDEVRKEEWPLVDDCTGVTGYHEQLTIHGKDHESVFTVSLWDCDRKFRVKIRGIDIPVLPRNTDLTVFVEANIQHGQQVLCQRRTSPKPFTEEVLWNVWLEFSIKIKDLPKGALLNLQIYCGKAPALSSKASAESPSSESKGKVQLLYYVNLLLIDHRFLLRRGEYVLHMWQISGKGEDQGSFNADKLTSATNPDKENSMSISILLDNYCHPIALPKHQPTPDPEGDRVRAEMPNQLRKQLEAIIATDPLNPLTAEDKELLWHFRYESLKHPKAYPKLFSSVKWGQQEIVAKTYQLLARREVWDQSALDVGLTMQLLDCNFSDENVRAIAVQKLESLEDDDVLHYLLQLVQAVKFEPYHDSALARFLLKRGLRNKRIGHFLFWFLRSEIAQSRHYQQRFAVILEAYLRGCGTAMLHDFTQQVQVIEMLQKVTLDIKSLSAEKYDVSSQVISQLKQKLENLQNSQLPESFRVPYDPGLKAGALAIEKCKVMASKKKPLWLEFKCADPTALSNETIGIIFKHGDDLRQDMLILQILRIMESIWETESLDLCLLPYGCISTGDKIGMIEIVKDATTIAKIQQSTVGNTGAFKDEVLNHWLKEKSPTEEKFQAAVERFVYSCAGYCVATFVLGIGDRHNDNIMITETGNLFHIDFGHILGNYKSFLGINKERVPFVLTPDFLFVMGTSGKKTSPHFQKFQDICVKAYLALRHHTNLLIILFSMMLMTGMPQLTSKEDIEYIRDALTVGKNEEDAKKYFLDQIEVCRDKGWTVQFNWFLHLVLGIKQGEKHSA
PI3Kβ, sequence (P42338 whole entry): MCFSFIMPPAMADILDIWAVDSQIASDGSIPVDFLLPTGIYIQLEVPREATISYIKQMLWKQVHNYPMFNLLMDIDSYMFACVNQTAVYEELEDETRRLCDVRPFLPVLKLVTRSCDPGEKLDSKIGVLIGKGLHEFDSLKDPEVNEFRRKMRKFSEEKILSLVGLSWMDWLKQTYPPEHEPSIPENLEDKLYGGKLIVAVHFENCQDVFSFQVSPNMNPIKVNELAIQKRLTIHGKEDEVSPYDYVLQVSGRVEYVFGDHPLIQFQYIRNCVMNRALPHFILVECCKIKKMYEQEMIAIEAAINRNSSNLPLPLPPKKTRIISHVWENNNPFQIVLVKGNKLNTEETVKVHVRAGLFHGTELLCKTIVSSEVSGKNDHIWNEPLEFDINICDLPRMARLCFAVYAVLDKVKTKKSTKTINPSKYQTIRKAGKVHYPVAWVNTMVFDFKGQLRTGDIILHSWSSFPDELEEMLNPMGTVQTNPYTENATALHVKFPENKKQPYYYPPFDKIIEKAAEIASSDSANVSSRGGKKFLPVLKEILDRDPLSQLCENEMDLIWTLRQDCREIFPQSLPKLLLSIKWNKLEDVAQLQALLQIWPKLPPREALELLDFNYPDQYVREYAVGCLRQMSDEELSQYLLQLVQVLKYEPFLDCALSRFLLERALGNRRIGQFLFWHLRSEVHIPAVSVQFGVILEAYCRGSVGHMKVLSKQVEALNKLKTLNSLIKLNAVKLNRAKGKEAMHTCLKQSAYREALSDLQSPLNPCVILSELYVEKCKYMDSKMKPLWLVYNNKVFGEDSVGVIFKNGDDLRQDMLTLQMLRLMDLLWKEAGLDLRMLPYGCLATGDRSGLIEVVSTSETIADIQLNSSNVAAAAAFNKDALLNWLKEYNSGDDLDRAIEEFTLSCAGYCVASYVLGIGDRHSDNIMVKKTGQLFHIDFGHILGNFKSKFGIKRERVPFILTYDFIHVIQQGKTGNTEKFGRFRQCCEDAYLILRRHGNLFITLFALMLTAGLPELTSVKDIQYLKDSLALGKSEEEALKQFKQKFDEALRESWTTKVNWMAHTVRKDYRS
PI3Kβ, sequence (P27986 whole entry partner): as the sequence (P27986 whole entry partner) above

Row | IC50 (PI3Kγ) | IC50 (PI3Kδ) | IC50 (PI3Kβ) | Compound
1 | > 10000 nM | 8 nM | 590 nM | COCCCn1c([C@H](C)Nc2ncnc(N)c2C#N)nc2c(Cl)ccc(Cl)c2c1=O [Compound 106, (S)-4-amino-6-((1-(5,8-dichloro-3-(3-methoxypropyl)-4-oxo-3,4-dihydroquinazolin-2-yl)ethyl)amino)pyrimidine-5-carbonitrile]
2 | 1700 nM | 3 nM | 82 nM | COCCCn1c([C@H](C)Nc2nc(N)nc(N)c2C#N)nc2c(Cl)ccc(Cl)c2c1=O [Compound 107, (S)-2,4-diamino-6-((1-(5,8-dichloro-3-(3-methoxypropyl)-4-oxo-3,4-dihydroquinazolin-2-yl)ethyl)amino)pyrimidine-5-carbonitrile]
3 | ≥ 10000 nM | 39 nM | 2000 nM | COCCCn1c([C@H](C)Nc2ncnc(N)c2C#N)nc2c(F)ccc(F)c2c1=O [Compound 108, (S)-4-amino-6-((1-(5,8-difluoro-3-(3-methoxypropyl)-4-oxo-3,4-dihydroquinazolin-2-yl)ethyl)amino)pyrimidine-5-carbonitrile]
4 | 2180 nM | 14 nM | 520 nM | COCCCn1c([C@H](C)Nc2nc(N)nc(N)c2C#N)nc2c(F)ccc(F)c2c1=O [Compound 109, (S)-2,4-diamino-6-((1-(5,8-difluoro-3-(3-methoxypropyl)-4-oxo-3,4-dihydroquinazolin-2-yl)ethyl)amino)pyrimidine-5-carbonitrile]
5 | 180 nM | 4 nM | 42 nM | C[C@H](Nc1nc(N)nc(N)c1C#N)c1nc2cccc(Cl)c2c(=O)n1CCCC#N [Compound 110, (S)-2,4-diamino-6-((1-(5-chloro-3-(3-cyanopropyl)-4-oxo-3,4-dihydroquinazolin-2-yl)ethyl)amino)pyrimidine-5-carbonitrile]
6 | 530 nM | 3 nM | 40 nM | C[C@H](Nc1nc(N)nc(N)c1C#N)c1nc2cccc(Cl)c2c(=O)n1CCCS(C)(=O)=O [Compound 111, (S)-2,4-diamino-6-((1-(5-chloro-3-(3-(methylsulfonyl)propyl)-4-oxo-3,4-dihydroquinazolin-2-yl)ethyl)amino)pyrimidine-5-carbonitrile]
7 | 62 nM | 3 nM | 8 nM | N#CCCn1c([C@@H](Nc2nc(N)nc(N)c2C#N)C2CC2)nc2cccc(Cl)c2c1=O [Compound 112, (S)-2,4-diamino-6-(((5-chloro-3-(2-cyanoethyl)-4-oxo-3,4-dihydroquinazolin-2-yl)(cyclopropyl)methyl)amino)pyrimidine-5-carbonitrile]
8 | 59 nM | 1 nM | 17 nM | N#CCCCn1c([C@@H](Nc2nc(N)nc(N)c2C#N)C2CC2)nc2cccc(Cl)c2c1=O [Compound 113, (S)-2,4-diamino-6-(((5-chloro-3-(3-cyanopropyl)-4-oxo-3,4-dihydroquinazolin-2-yl)(cyclopropyl)methyl)amino)pyrimidine-5-carbonitrile]
9 | 130 nM | 0.8 nM | 12 nM | N#CCCCCn1c([C@@H](Nc2nc(N)nc(N)c2C#N)C2CC2)nc2cccc(Cl)c2c1=O [Compound 114, (S)-2,4-diamino-6-(((5-chloro-3-(4-cyanobutyl)-4-oxo-3,4-dihydroquinazolin-2-yl)(cyclopropyl)methyl)amino)pyrimidine-5-carbonitrile]
10 | 190 nM | 9 nM | 190 nM | CC[C@H](Nc1nc(N)nc(N)c1C#N)c1nc2cccc(Cl)c2c(=O)n1CCCC#N [Compound 115, (S)-2,4-diamino-6-((1-(5-chloro-3-(3-cyanopropyl)-4-oxo-3,4-dihydroquinazolin-2-yl)propyl)amino)pyrimidine-5-carbonitrile]
11 | 540 nM | 5 nM | 150 nM | CC[C@H](Nc1nc(N)nc(N)c1C#N)c1nc2cccc(Cl)c2c(=O)n1CCCCC#N [Compound 116, (S)-2,4-diamino-6-((1-(5-chloro-3-(4-cyanobutyl)-4-oxo-3,4-dihydroquinazolin-2-yl)propyl)amino)pyrimidine-5-carbonitrile]
12 | 3000 nM | 21 nM | 250 nM | CC[C@H](Nc1nc(N)nc(N)c1C#N)c1nc2cccc(Cl)c2c(=O)n1CCCS(C)(=O)=O [Compound 117, (S)-2,4-diamino-6-((1-(5-chloro-3-(3-(methylsulfonyl)propyl)-4-oxo-3,4-dihydroquinazolin-2-yl)propyl)amino)pyrimidine-5-carbonitrile]
13 | 570 nM | 2 nM | 13 nM | CS(=O)(=O)CCCn1c([C@@H](Nc2nc(N)nc(N)c2C#N)C2CC2)nc2cccc(Cl)c2c1=O [Compound 118, (S)-2,4-diamino-6-(((5-chloro-3-(3-(methylsulfonyl)propyl)-4-oxo-3,4-dihydroquinazolin-2-yl)(cyclopropyl)methyl)amino)pyrimidine-5-carbonitrile]
14 | 1100 nM | 2 nM | 8 nM | CS(=O)(=O)CCCn1c([C@@H](Nc2nc(N)nc(N)c2C#N)C2CC2)nc2c(Cl)ccc(Cl)c2c1=O [Compound 119, (S)-2,4-diamino-6-((cyclopropyl(5,8-dichloro-3-(3-(methylsulfonyl)propyl)-4-oxo-3,4-dihydroquinazolin-2-yl)methyl)amino)pyrimidine-5-carbonitrile]
15 | 1900 nM | 8 nM | 30 nM | CS(=O)(=O)CCCn1c([C@@H](Nc2nc(N)nc(N)c2C#N)C2CC2)nc2c(Cl)cc(F)cc2c1=O [Compound 120, (S)-2,4-diamino-6-(((8-chloro-6-fluoro-3-(3-(methylsulfonyl)propyl)-4-oxo-3,4-dihydroquinazolin-2-yl)(cyclopropyl)methyl)amino)pyrimidine-5-carbonitrile]
16 | 760 nM | 2 nM | 9 nM | N#Cc1c(N)nc(N)nc1N[C@H](c1nc2c(Cl)cc(F)cc2c(=O)n1CCCC(N)=O)C1CC1 [Compound 121, (S)-4-(8-chloro-2-(cyclopropyl((2,6-diamino-5-cyanopyrimidin-4-yl)amino)methyl)-6-fluoro-4-oxoquinazolin-3(4H)-yl)butanamide]
17 | 120 nM | 0.7 nM | 23 nM | CS(=O)(=O)CCCCn1c([C@@H](Nc2nc(N)nc(N)c2C#N)C2CC2)nc2cccc(Cl)c2c1=O [Compound 122, (S)-2,4-diamino-6-(((5-chloro-3-(4-(methylsulfonyl)butyl)-4-oxo-3,4-dihydroquinazolin-2-yl)(cyclopropyl)methyl)amino)pyrimidine-5-carbonitrile]
18 | 2300 nM | 3 nM | 49 nM | C[C@H](Nc1nc(N)nc(N)c1C#N)c1nc2cccc(Cl)c2c(=O)n1C[C@H]1CCNC1 [Compound 125, 2,4-diamino-6-(((S)-1-(5-chloro-4-oxo-3-((S)-pyrrolidin-3-ylmethyl)-3,4-dihydroquinazolin-2-yl)ethyl)amino)pyrimidine-5-carbonitrile]
19 | 2500 nM | 0.9 nM | 24 nM | C[C@H](Nc1nc(N)nc(N)c1C#N)c1nc2cccc(Cl)c2c(=O)n1C[C@@H]1CCNC1 [Compound 126, 2,4-diamino-6-(((S)-1-(5-chloro-4-oxo-3-((R)-pyrrolidin-3-ylmethyl)-3,4-dihydroquinazolin-2-yl)ethyl)amino)pyrimidine-5-carbonitrile]
20 | 720 nM | 2 nM | 130 nM | C[C@H](Nc1nc(N)nc(N)c1C#N)c1nc2cccc(Cl)c2c(=O)n1CCCN1CCOCC1 [Compound 127, (S)-2,4-diamino-6-((1-(5-chloro-3-(3-morpholinopropyl)-4-oxo-3,4-dihydroquinazolin-2-yl)ethyl)amino)pyrimidine-5-carbonitrile]
21 | 280 nM | 15 nM | 530 nM | C[C@H](Nc1nc(N)nc(N)c1C#N)c1nc2cccc(Cl)c2c(=O)n1CCC(=O)N(C)C [Compound 128, (S)-3-(5-chloro-2-(1-((2,6-diamino-5-cyanopyrimidin-4-yl)amino)ethyl)-4-oxoquinazolin-3(4H)-yl)-N,N-dimethylpropanamide]
22 | 530 nM | 2 nM | 290 nM | COC(C)(C)CCn1c([C@H](C)Nc2nc(N)nc(N)c2C#N)nc2cccc(Cl)c2c1=O [Compound 129, (S)-2,4-diamino-6-((1-(5-chloro-3-(3-methoxy-3-methylbutyl)-4-oxo-3,4-dihydroquinazolin-2-yl)ethyl)amino)pyrimidine-5-carbonitrile]
23 | 410 nM | 3 nM | 120 nM | CCOCCn1c([C@H](C)Nc2nc(N)nc(N)c2C#N)nc2cccc(Cl)c2c1=O [Compound 130, (S)-2,4-diamino-6-((1-(5-chloro-3-(2-ethoxyethyl)-4-oxo-3,4-dihydroquinazolin-2-yl)ethyl)amino)pyrimidine-5-carbonitrile]
24 | 1400 nM | 13 nM | 210 nM | COCC(COC)n1c([C@H](C)Nc2nc(N)nc(N)c2C#N)nc2cccc(Cl)c2c1=O [Compound 131, (S)-2,4-diamino-6-((1-(5-chloro-3-(1,3-dimethoxypropan-2-yl)-4-oxo-3,4-dihydroquinazolin-2-yl)ethyl)amino)pyrimidine-5-carbonitrile]
25 | 330 nM | 2 nM | 58 nM | COC[C@H](C)n1c([C@H](C)Nc2nc(N)nc(N)c2C#N)nc2cccc(Cl)c2c1=O [Compound 132, 2,4-diamino-6-(((S)-1-(5-chloro-3-((S)-1-methoxypropan-2-yl)-4-oxo-3,4-dihydroquinazolin-2-yl)ethyl)amino)pyrimidine-5-carbonitrile]
